The values below come from patent EP0286491B1, “Antimalarial aminoquinoline derivatives, method for their preparation and pharmaceutical composition containing them” (LA REGION WALLONNE, priority 1987, dated 1988).

“Also recorded” adds a separate entry of the source.

Series [1] can be described thus: Acute toxicity after a single i.v. injection in non-infected mice. The series is classed as in vivo. The note with it: for toxicité aiguë compared with Pq: qualitative comparison with primaquine; for LD50 / MTD: mouse, in vivo, iv; for LD50: mice, read-out: dose léthale 50 % (LD₅₀); for MTD: highest dose with weight loss <= 5 % over five days, read-out: dose maximale tolérée (MTD). From the text:
La toxicité aiguë en fonction de la dose unique administrée est déterminée sur des souris de 18 à 22 g. Une série de dilutions de chaque composé est injectée par voie intraveineuse à des groupes de 10 souris.
^a : les dérivés sont administrés par vote i.v. trois heures après l'inoculation des sporozoïtes. Les concentrations sont toujours exprimées en mg Pq diphosphate/kg. ^b : la dose maximale tolérée est définie code la dose la plus élevée induisant une perte de poids inférieure ou égale & 5 % du poids initial pendant une période de cinq jours suivant l'injection i.v. ^c : dose léthale tuant 50 % des souris en une seule injection i.v. ^d : dose prophylactique causale permettant de guérir 50 % des souris injectées. ^e : index thérapeutique défini par le rapport LD₅₀/CPD₅₀.

Series [2] has as its system P. berghei berghei (ANKA). In words: Causal prophylactic activity in the rodent malaria model (sporozoite-infected mice, single i.v. treatment 3 h after inoculation). The note with it: for activité thérapeutique compared with Pq: qualitative comparison with primaquine; for index Pq (CPD₅₀ de la Pq/CPD₅₀ du composé): ratio of CPD₅₀ of Pq to CPD₅₀ of the derivative; for CPD₅₀ (dose prophylactique causale guérissant 50 % des animaux infectés) / ED50: dose as mg Pq diphosphate/kg; for ED50: read-out: CPD₅₀ (dose prophylactique causale guérissant 50 % des animaux infectés); for index thérapeutique (LD₅₀/CPD₅₀): ratio LD₅₀/CPD₅₀. The series is classed as in vivo, souris Swiss OF1. From the text: Le modèle de la malaria du rongeur, Plasmodium berghei-Anopheles stephensi-souris, mis au point par MOST, H., HERMAN, R. & SCHOENFELD, C. (1967) Am. J. Trop. Med. Hyg. 16, 572-575, permet de déterminer l'activité prophylactique causale (schizonticide tissulaire) de nouveaux composés thérapeutiques. La procédure utilisée est dérivée de celle de MOST, H. & MONTUORI, W.A. (1975) Am. J. Trop. Med. Hyg. 24, 179-182. Il s'agit du système P. berghei berghei (ANKA)- Anopheles stephensi-souris Swiss OF1. La souche ANKA de P. b. berghei est entretenue cycliquement sur Anopheles stephensi. La souche de souris Swiss OF1 est particulièrement sensible à P. b. berghei qui produit une infection toujours mortelle.
Les moustiques femelles (80 à 100 individus par préparation) sont débarassés de leurs pattes, ailes et abdomen, puis homogénéisés à 4°C à l'aide d'un potter en verre, dans du milieu M 199 (GIBCO) contenant 10 % de sérum foetal de veau. La suspension de sporozoïtes est ensuite purifiée des débris du moustique par deux centrifugations successives ( 2 min. à 50 g et 5 min. à 200 g) et le surnageant recueilli est conservé à 4°C. Après comptage dans une chambre de Petroff-Hausser, le nombre de parasites est ajusté par dilution avec le même milieu froid, à la densité de 2 x 10⁵ sporozoïtes/ml. L'ensemble de la procédure est toujours effectuée dans un maximum de 35 minutes et permet de préserver la viabilité et l'infectivité des sporozoïtes.
Un volume de 0,5 ml de la suspension contenant 10⁵ sporozoïtes est injectée i.v. aux souris Swiss OF1 femelles de 18 à 22 g utilisées pour les tests thérapeutiques.
Des groupes de 20 à 25 souris infectées comme décrit ci-dessus sont traités en une seule injection intraveineuse de primaquine diphosphate (Pq) ou des dérivés monoacyls et aminoacides de la primaquine sous formes dichlorhydrates (X-Pq) trois heures après l'inoculation des sporozoïtes. Le volume injecté est ajusté en fonction du poids de la souris, à raison de 0,5 ml pour un poids de 25 g. Les composés sont dilués dans du tampon phosphate salin (PBS) pH 7.0 et le pH est ajusté à 7.0. Les souris infectées mais non traitées (5 par groupe) reçoivent le tampon seul et servent à contrôler l'infectivité des sporozoïtes.
Les souris expérimentales sont gardées durant une période de 50 jours. Le développement de la parasitémie est suivi en examinant quotidiennement des frottis de sang, colorés 60 min. au Giemsa à 5 % dans du tampon Sörensen à pH 7,2, à partir du 5ème jour et ce jusqu'au 15ème jour. Le nombre d'animaux infectés peut ainsi être déterminé. Ces résultats permettent d'établir la survie à long terme (LTS, le nombre de souris survivantes non parasitées sur le nombre de souris infectées et traitées).
L'activité prophylactique causale (CPD₅₀) est obtenue par l'analyse des logits de la réponse (exprimée en % de LTS) en fonction de la dose (mg Pq/kg).
Les animaux infectés à l'aide de sporozoïtes de P. berghei sont traités trois heures après avec une seule injection des composés par voie intraveineuse. Ce test permet de définir l'activité prophylactique causale des composés ou la dose permettant de guérir 50 % des animaux infectés (CPD₅₀). La dose est toujours exprimée en mg de Pq diphosphate par kg.

Setting [3] is: single i.v. injection 3 h after sporozoite inoculation.
Where [4] appears, read: Plasmodium berghei, iv, single i.v. injection 3 h after sporozoite inoculation.

In the case of `COc1cc(NC(C)CCCNC(=O)[C@@H](C)N)c2ncccc2c1` (stereo partly drawn) [D-alanine, N-1-D-alanyl, N-4-(méthoxy-6-quinolinyl-8)pentanediamine-1,4], the “toxicité aiguë compared with Pq” value in series [1] is “très faible toxicité”.

As to `COc1cc(NC(C)CCCNC(=O)[C@H](CC(C)C)NC(=O)[C@H](C)N)c2ncccc2c1` (stereo partly drawn) [L-leucyl-L-alanyl-Pq, N-1-L-Alanyl-L-Leucyl, N-4-(Méthoxy-6-quinolinyl-8) pentanediamine-1,4], the “toxicité aiguë compared with Pq” value in series [1] was “meilleure réduction de toxicité”.

As for `COc1cc(NC(C)CCCNC(=O)C(C)NC(=O)CCC(=O)O)c2ncccc2c1` [succinyl-L-alanyl-Pq], in series [2], the “activité thérapeutique compared with Pq” value is “nettement moins actifs que la Pq”.

L-glutamine: the “index Pq (CPD₅₀ de la Pq/CPD₅₀ du composé)” value (from here on “index Pq”) in series [2] is recorded as 1,9. Moreover, in series [2] (setting [3]), the “CPD₅₀ (dose prophylactique causale guérissant 50 % des animaux infectés)” value is 10 mg Pq/kg.

For `COc1cc(NC(C)CCCNC(=O)[C@@H](N)CC(C)C)c2ncccc2c1` (stereo partly drawn) [L-leucyl-Pq, N-1-L-leucyl, N-4-(méthoxy-6-quinolinyl-8)pentanediamine-1,4], the “index Pq” value in series [2] was 1,2. In series [2] (setting [3]), the dose minimale effective is given as 7,6 mg Pq/kg and the “dose totalement curative (100 %)” value turned out to be 30 mg Pq/kg. Also, in series [2] (single i.v. injection 3 h after sporozoite inoculation, unit printed without mg), the CPD₅₀ was 16,2 Pq/kg.

Take `COc1cc(NC(C)CCCNC(=O)[C@@H](N)CCCCN)c2ncccc2c1` (stereo partly drawn) [L-lysyl-Pq]: the “plus toxique que la primaquine” value in series [1] (acute toxicity, fold versus primaquine) stood at 3 x. For the same compound, in series [1] (single i.v. injection), the dose minimale toxique was 8,2 mg Pq/kg. Moreover, the “index Pq” value in series [2] is listed as 4,8. In addition, in series [2] (setting [3]), the dose minimale effective is listed as 1,7 mg Pq/kg, the “dose totalement curative (100 %)” value is 8,2 mg Pq/kg and the “CPD₅₀ (dose prophylactique causale guérissant 50 % des animaux infectés)” value is 3,9 mg Pq/kg.

As to `COc1cc(NC(C)CCCNC(=O)C(Cc2ccccc2)NC(=O)CCC(=O)O)c2ncccc2c1` [succinyl-L-phenylalanyl-Pq], the “activité thérapeutique compared with Pq” value in series [2] is recorded as “nettement moins actifs que la Pq”.

On to `COc1cc(NC(C)CCCNC(=O)[C@@H](N)Cc2ccccc2)c2ncccc2c1` (stereo partly drawn) [L-phenylalanyl-Pq, N-1-L-phénylalanyl , N-4(methoxy-6-quinolinyl-8) pentanediamine-1,4], for which, in series [1], the “toxicité aiguë compared with Pq” value was “voisine de celle de la Pq”. Also, the “index Pq” value in series [2] was 3,1. In series [2] (setting [3]), the dose minimale effective is recorded as 1,8 mg Pq/kg, the “dose totalement curative (100 %)” value is 21,3 mg Pq/kg and the “CPD₅₀ (dose prophylactique causale guérissant 50 % des animaux infectés)” value was 6,1 mg Pq/kg.

For the compound `COc1cc(NC(C)CCCNC(=O)CCCC(=O)O)c2ncccc2c1` (stereo not shown) [glutarryl-Pq], the “activité thérapeutique compared with Pq” value in series [2] is “nettement moins actifs que la Pq”.

With `COc1cc(NC(C)CCCN)c2ncccc2c1` (stereo not shown) [Pq, 6-méthoxy-8-(4-amino-1-méthylbutylamino)-quinoléine, reference compound], the “toxicité dès” value in series [1] (dose from which toxicity is seen, i.v.) is reported as no less than 25 mg/kg. In series [1] (single i.v. injection), the LD50 came out at 31 mg/kg and the MTD came out at 25.7 mg/kg. Also, the ED50 in series [2] (setting [4]) amounted to 18.7 mg/kg. The minimal effective dose in series [2] (Plasmodium berghei, iv, single i.v. injection 3 h after sporozoite inoculation, read-out: dose minimale effective) was found to be 10.4 mg/kg. In addition, the “activité thérapeutique” value in series [2] (at 25 mg/kg i.v.) was determined as 75%. Also, in series [2], the “index thérapeutique (LD₅₀/CPD₅₀)” value is 1,7.

As to `COc1cc(NC(C)CCCNC(=O)[C@H](C)N)c2ncccc2c1` (stereo partly drawn) [L-alanyl-Pq, N-1-L-alanyl, N-4-(méthoxy-6-quinolinyl-8) pentanediamine-1,4], in series [1], the “toxicité aiguë compared with Pq” value is reported as “meilleure réduction de toxicité; also recorded: moins toxique que la primaquine”. Besides, in series [2], the “activité thérapeutique compared with Pq” value was “presque quatre fois supérieure à celle de la primaquine base” and the “index Pq” value was 3,0. Also, in series [2] (setting [3]), the dose minimale effective was 4 mg Pq/kg, the “dose totalement curative (100 %)” value is 9,9 mg Pq/kg and the “CPD₅₀ (dose prophylactique causale guérissant 50 % des animaux infectés)” value was 6,3 mg Pq/kg.

`COc1cc(NC(C)CCCNC(=O)[C@@H](N)CCC(=O)O)c2ncccc2c1` (stereo partly drawn) [L-glutamyl-Pq, N-1-L-glutamyl, N-4-(méthoxy-6-quinolinyl-8) pentadiamine-1,4]: in series [1] (fold higher than Pq), the “LD₅₀ relative to the LD₅₀ of Pq” value stood at 4 x and the “MTD relative to the MTD of Pq” value is 5 x. In series [1] (single i.v. injection), the LD50 was 136 mg/kg and the MTD stood at 124 mg/kg. In series [1], the “toxicité aiguë compared with Pq” value is given as “le moins toxique; also recorded: meilleure réduction de toxicité”. Moreover, in series [2] (setting [4]), the ED50 stood at 8.5 mg/kg. Moreover, in series [2], the “index thérapeutique (LD₅₀/CPD₅₀)” value is given as 16,1 and the “index Pq” value is listed as 2,2.
